SMILES strings stand for the structures.

The values that follow come from patent US11485708B2, “Compounds for treatment of PD-L1 diseases” (CHEMOCENTRYX, INC., priority 2019, dated 2022).

In this assay the target is human PD-L1 / Human PD-1 (Homo sapiens (Human), UniProt Q9NZQ7). The assay is described as follows: Enzyme-Linked Immunosorbent Assay (ELISA), PD-1/PD-L1 binding. To be noted: plates coated with human PD-L1, biotinylated human PD-1 added. The protocol:
96 Well plates were coated with 1 μg/mL of human PD-L1 (obtained from R&D) in PBS overnight at 4′° C. The wells were then blocked with 2% BSA in PBS (W/V) with 0.05% TWEEN-20 for 1 hour at 37′° C. The plates were washed 3 times with PBS/0.05% TWEEN-20 and the compounds were serial diluted (1:5) in dilution medium and added to the ELISA plates. Human PD-1 and biotin 0.3 μg/mL (ACRO Biosystems) were added and incubated for 1 hour at 37° C. then washed 3 times with PBS/0.05% TWEEN-20. A second block was performed with 2% BSA in PBS (WNV)/0.05% TWEEN-20 for 10 min at 37° C. and the plates were washed 3 times with PBS/0.05% TWEEN-20. Streptavidin-HIRP was added for 1 hour at 37° C. then the plates were washed 3 times with PBS/0.05% TWEEN-20. TMB substrate was added and reacted for 20 min at 37° C. A stop solution (2 N aqueous H2SO4) was added. The absorbance was read at 450 nm using a micro-plate spectrophotometer.

human PD-L1 / Human PD-1, sequence (Q9NZQ7 19-239): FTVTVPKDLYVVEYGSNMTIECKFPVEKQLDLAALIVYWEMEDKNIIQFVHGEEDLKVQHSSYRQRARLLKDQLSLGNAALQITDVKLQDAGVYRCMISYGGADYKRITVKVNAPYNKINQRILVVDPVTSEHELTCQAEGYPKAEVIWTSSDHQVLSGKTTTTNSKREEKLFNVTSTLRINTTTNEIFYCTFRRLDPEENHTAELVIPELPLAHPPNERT

On to `Cc1c(OCCCN2CCC(F)CC2)cccc1-c1cccc(-c2ccc(CN)cc2Cl)c1C` [Compd 1.096], for which the IC50 lay in the range of 1000 to 10000 nM. Next, `COc1cc(-c2cccc(-c3cccc(NC4CCNCC4)c3C)c2C)cc(F)c1CN` [Compd 1.003, N-(4″-(aminomethyl)-3″-fluoro-5″-methoxy-2,2′-dimethyl-[1,1′:3′,1″-terphenyl]-3-yl)piperidin-4-amine]: below 1000 nM; `COc1cc(-c2cccc(-c3cccc(-c4cc(F)c(CNCC(=O)O)c(OC)c4)c3C)c2C)cc(F)c1CNCC(=O)O` [Compd 1.062]: below 1000 nM. Regarding `COc1cc(-c2cccc(-c3cccc(-c4cc(F)c(CNC(C)C)c(OC)c4)c3C)c2C)cc(F)c1CNC(C)C` [Compd 1.048], the half-inhibitory concentration (IC50) is below 1000 nM. Next, `COc1cc(-c2cccc(-c3cccc(-c4cc(F)c(CNCCCC(=O)O)c(OC)c4)c3C)c2C)cc(F)c1CNCCCC(=O)O` [Compd 1.063, 4,4′-(((3,3′″-difluoro-5,5′″-dimethoxy-2′,2″-dimethyl-[1,1′:3′,1″:3″,1′″-quaterphenyl]-4,4′″-diyl)bis(methylene))bis(azanediyl))dibutyric acid]: below 1000 nM. Turning to `COc1cc(-c2cccc(-c3cccc(-c4cc(F)c(CNCCO)c(OC)c4)c3C)c2C)cc(F)c1CNCCO` [Compd 1.051, 2,2′-(((3,3′″-difluoro-5,5′″-dimethoxy-2′,2″-dimethyl-[1,1′:3′,1″:3″,1′″-quaterphenyl]-4,4′″-diyl)bis(methylene))bis(azanediyl))bis(ethan-1-ol)], the 50% inhibitory concentration (IC50) was below 1000 nM. For `Cc1c(OCCCN2CCC2(C)C)cccc1-c1cccc(-c2ccc3c(c2)CCNC3)c1C(F)(F)F` [Compd 1.085] the value was 1000 to 10000 nM; for `Cc1c(OCCCN2CCC2(C)C)cccc1-c1cccc(-c2ccc3c(c2)CCNC3)c1C#N` [Compd 1.102, 3′-(3-(2,2-dimethylazetidin-1-yl)propoxy)-2′-methyl-3-(1,2,3,4-tetrahydroisoquinolin-6-yl)-[1,1′-biphenyl]-2-carbonitrile], below 1000 nM; for `COC(=O)[C@@H]1CCCCN1Cc1ccc(-c2cccc(-c3cccc(OCCCN4CCC(F)CC4)c3C)c2C)cc1` [Compd 1.072], 1000 to 10000 nM. Next, `C=Cc1c(-c2ccc3c(c2)CCNC3)cccc1-c1cccc(OCCCN2CCC2(C)C)c1C` [Compd 1.076, 6-(3′-(3-(2,2-dimethylazetidin-1-yl)propoxy)-2′-methyl-2-vinyl-[1,1′-biphenyl]-3-yl)-1,2,3,4-tetrahydroisoquinoline]: below 1000 nM; `COc1cc(-c2cccc(-c3cccc(OCCCN4[C@H](C)CC[C@H]4C)c3C)c2C)cc(F)c1CNCCCC(=O)O` [Compd 1.067]: below 1000 nM; `Cc1c(OCCCN2CCC2(C)C)cccc1-c1cccc(-c2ccc3c(c2)CNCCC3)c1C` [Compd 1.123]: below 1000 nM. Next, `Cc1c(OCCCN2CCC2(C)C)cccc1-c1cccc(-c2ccc3c(c2)CCNC3)c1C` [Compd 1.125]: below 1000 nM; `Cc1c(OCCCN2[C@H](C)CC[C@H]2C)cccc1-c1cccc(-c2ccc(CNCC(=O)O)cc2)c1C` [Compd 1.101]: below 1000 nM; `COc1cc(-c2cccc(-c3cccc(-c4cc(F)c(CN(C)C)c(OC)c4)c3C)c2C)cc(F)c1CNCCO` [Compd 1.050, 2-(((4′″-((dimethylamino)methyl)-3,3′″-difluoro-5,5′″-dimethoxy-2′,2″-dimethyl-[1,1′:3′,1″:3″,1′″-quaterphenyl]-4-yl)methyl)amino)ethan-1-ol]: below 1000 nM.

For `Cc1c(OCCCN2CCC(F)CC2)cccc1-c1cccc(-c2ccc3c(c2C)CCNC3)c1C` [Compd 1.087], the IC50 lay within 1000 to 10000 nM. Next, `Cc1c(OCCCN2[C@H](C)CC[C@H]2C)cccc1-c1cccc(-c2ccc3c(c2)CCN(CCO)C3)c1C` [Compd 1.107]: below 1000 nM. `COC(=O)C1=Cc2cc(-c3cccc(-c4cc(F)c(CN)c(OC)c4)c3C)ccc2OC1` [Compd 1.016, Methyl 6-(4′-(aminomethyl)-3′-fluoro-5′-methoxy-2-methyl-[1,1′-biphenyl]-3-yl)-2H-chromene-3-carboxylate] had an IC50 below 1000 nM. `COc1cc(-c2cccc(-c3cccc(-c4cc(F)c(CN[C@@H]5CCC[C@@H]5O)c(OC)c4)c3C)c2C)cc(F)c1CN[C@@H]1CCC[C@@H]1O` [Compd 1.046] gave a half-maximal inhibitory concentration (IC50) below 1000 nM. Compound `COc1cc(-c2cccc(-c3cccc(-c4cc(F)c(CCN)c(OC)c4)c3C)c2C)cc(F)c1CN` [Compd 1.039] came in with an IC50 below 1000 nM. `Cc1c(OCCCN2[C@H](C)CC[C@H]2C)cccc1-c1cccc(-c2ccc(CNCCC(=O)O)cc2)c1C` [Compd 1.097]: the half-inhibitory concentration (IC50) is below 1000 nM. For `Cc1c(-c2ccc3c(c2)CNCC3)cccc1-c1ccc2c(c1)OCCO2` [Compd 1.128] the value was 1000 to 10000 nM. Next, `COc1cc(-c2cccc(-c3cccc(-c4cc(F)c(CN)c(OC)c4)c3C)c2C)ccc1CC(=O)O` [Compd 1.001]: 1000 to 10000 nM; `COc1cc(-c2cccc(-c3cccc(OCCCN4[C@H](C)CC[C@H]4C)c3C)c2C)ccc1CNCCCC(=O)O` [Compd 1.066]: below 1000 nM.

The compound `Cc1c(OCCCN2CCC(F)CC2)cccc1-c1cccc(-c2ccc(CN)c(F)c2)c1C` [Compd 1.086] gave an IC50 below 1000 nM. `Cc1c(OCCCN2CCC(F)CC2)cccc1-c1cccc(-c2ccc3c(c2)OCCNC3)c1C` [Compd 1.080] registered a half-inhibitory concentration (IC50) below 1000 nM.

The compound `Cc1c(OCCCN2CCC(F)CC2)cccc1-c1cccc(-c2ccc(CN3CCCC[C@H]3C(=O)O)cc2)c1C` [Compd 1.071] returned a half-maximal inhibitory concentration (IC50) of 1000 to 10000 nM. Turning to `Cc1c(OCCCN2CCC(F)CC2)cccc1-c1cccc(-c2ccc(CN(C)C)c(Cl)c2)c1C` [Compd 1.081], the 50% inhibitory concentration (IC50) was below 1000 nM. As for `COc1ccc(-c2cccc(-c3cc(F)c(CN)c(OC)c3)c2C)c(F)c1` [Compd 1.030], the IC50 fell in the range of 1000 to 10000 nM.

Regarding `COc1cc(-c2cccc(-c3cccc(CCN)c3C)c2C)cc(F)c1CN` [Compd 1.023], the concentration for half-maximal inhibition (IC50) is 1000 to 10000 nM. As to `COc1cccc(-c2cccc(-c3ccc4c(c3)CCNC4)c2C)c1` [Compd 1.116, 6-(3′-methoxy-2-methyl-[1,1′-biphenyl]-3-yl)-1,2,3,4-tetrahydroisoquinoline], the IC50 lay in the range of 1000 to 10000 nM. `Cc1cc(-c2cccc(-c3cccc(OCCCN4CCC(F)CC4)c3C)c2C)ccc1CN(C)C` [Compd 1.083] yielded a concentration for half-maximal inhibition (IC50) below 1000 nM. Next, `Cc1c(OCCCN2[C@H](C)CC[C@H]2C)cccc1-c1cccc(-c2ccc(C(C)N)cc2)c1C` (stereo partly drawn) [Compd 1.113]: below 1000 nM; `CCOC(=O)CN1CCc2cc(-c3cccc(-c4cccc(OCCCN5[C@H](C)CC[C@H]5C)c4C)c3C)ccc2C1` [Compd 1.106]: 1000 to 10000 nM; `Cc1c(-c2ccc3c(c2)CCNC3)cccc1-c1cccc(OCCCN2[C@H](C)CC[C@H]2C)c1Cl` [Compd 1.092]: below 1000 nM. Turning to `CNCc1c(F)cc(-c2cccc(-c3cccc(-c4cc(F)c(CNC)c(OC)c4)c3C)c2C)cc1OC` [Compd 1.053], the IC50 was below 1000 nM.

`Cc1c(OCCCN2[C@H](C)CC[C@H]2C)cccc1-c1cccc(-c2ccc(C(C)(C)N)cc2)c1C` [Compd 1.119] returned an IC50 below 1000 nM. For `COc1cc(-c2cccc(-c3cccc(OCCCN4[C@H](C)CC[C@H]4C)c3C)c2C)cc2c1CNCC2` [Compd 1.060] the value was below 1000 nM. Next, `Cc1c(OCCCN2CCC(F)CC2)cccc1-c1cccc(-c2ccc(CN)cc2F)c1C` [Compd 1.082]: below 1000 nM.
